Laboratory results as given in patent US20250098679A1, “HERBICIDAL PYRIDONE DERIVATIVES” (SYNGENTA CROP PROTECTION AG, priority 2021, published 2025).

Experiments:
Format in all cases: in vivo
Zea mays (ZEAMX) [1] = test: Pre-emergence Test, Zea mays (ZEAMX); conditions: evaluated after 13 days
[2] = system: Echinochloa crus-galli (ECHCG); test: Post-emergence Test, Echinochloa crus-galli (ECHCG); set-up: key to percentage damage caused to the plant, ECHCG (five-point scale): 5=81-100%, 4=61-80%, 3=41-60%, 2=21-40%, 1=0-20% damage; conditions: evaluated after 13 days; for Post-emergence Test ECHCG, percentage damage caused to the plant (five-point scale): 250 g/Ha (*)
How it was run: (§1)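 Percent plant damage was rated 13 days post-application on a 1–5 scale (1=0-20%, 5=81-100%). Application used an aqueous acetone (50:50)/0.5% Tween 20 spray, normally 1000 g/ha, with controlled glasshouse conditions (24/16 °C, 14 h light, 65% humidity).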

[3] = system: Ipomoea hederacea (IPOHE); test: Post-emergence Test, Ipomoea hederacea (IPOHE); set-up: key to percentage damage caused to the plant, IPOHE (five-point scale): 5=81-100%, 4=61-80%, 3=41-60%, 2=21-40%, 1=0-20% damage; conditions: evaluated after 13 days
How it was run: as §1

Zea mays (ZEAMX) [4] = test: Post-emergence Test, Zea mays (ZEAMX); set-up: key to percentage damage caused to the plant, ZEAMX (five-point scale): 5=81-100%, 4=61-80%, 3=41-60%, 2=21-40%, 1=0-20% damage; conditions: evaluated after 13 days
How it was run: as §1

[5] = system: Amaranthus retoflexus (AMARE); test: Post-emergence Test, Amaranthus retoflexus (AMARE); set-up: key to percentage damage caused to the plant, AMARE (five-point scale): 5=81-100%, 4=61-80%, 3=41-60%, 2=21-40%, 1=0-20% damage; conditions: evaluated after 13 days
How it was run: as §1

[6] = system: Amaranthus palmeri (AMAPA); test: Post-emergence Test, Amaranthus palmeri (AMAPA); set-up: key: 5=81-100%, 4=61-80%, 3=41-60%, 2=21-40%, 1=0-20% damage; conditions: evaluated after 13 days
How it was run: as §1

[7] = system: Amaranthus retoflexus (AMARE); test: Pre-emergence Test, Amaranthus retoflexus (AMARE); conditions: evaluated after 13 days
[8] = system: Ipomoea hederacea (IPOHE); test: Pre-emergence Test, Ipomoea hederacea (IPOHE); conditions: evaluated after 13 days
[9] = system: Echinochloa crus-galli (ECHCG); test: Pre-emergence Test, Echinochloa crus-galli (ECHCG); conditions: evaluated after 13 days
Setaria faberi (SETFA) = test: Post-emergence Test, Setaria faberi (SETFA); set-up: key to percentage damage caused to the plant, SETFA (five-point scale): 5=81-100%, 4=61-80%, 3=41-60%, 2=21-40%, 1=0-20% damage; conditions: 1000 g/ha, evaluated after 13 days
How it was run: as §1

[10] = system: Amaranthus palmeri (AMAPA); test: Pre-emergence Test, Amaranthus palmeri (AMAPA); conditions: evaluated after 13 days

Row | Compound | Pre-emergence Test ZEAMX, percentage damage caused to the plant (five-point scale) (Zea mays (ZEAMX) [1]; 250 g/Ha (*)) | Pre-emergence Test ZEAMX, percentage damage caused to the plant (five-point scale) (Zea mays (ZEAMX) [1]; 1000 g/ha) | Post-emergence Test ECHCG, percentage damage caused to the plant (five-point scale) [2] | Post-emergence Test IPOHE, percentage damage caused to the plant (five-point scale) ([3]; 250 g/Ha (*)) | Post-emergence Test IPOHE, percentage damage caused to the plant (five-point scale) ([3]; 1000 g/ha) | Post-emergence Test ZEAMX, percentage damage caused to the plant (five-point scale) (Zea mays (ZEAMX) [4]; 250 g/Ha (*)) | Post-emergence Test ZEAMX, percentage damage caused to the plant (five-point scale) (Zea mays (ZEAMX) [4]; 1000 g/ha) | Post-emergence Test AMARE, percentage damage caused to the plant (five-point scale) ([5]; 250 g/Ha (*)) | Post-emergence Test AMARE, percentage damage caused to the plant (five-point scale) ([5]; 1000 g/ha) | Post-emergence Test AMAPA, percentage damage caused to the plant (five-point scale) ([6]; 250 g/Ha (*)) | Post-emergence Test AMAPA, percentage damage caused to the plant (five-point scale) ([6]; 1000 g/ha) | Pre-emergence Test AMARE, percentage damage caused to the plant (five-point scale) ([7]; 250 g/Ha (*)) | Pre-emergence Test AMARE, percentage damage caused to the plant (five-point scale) ([7]; 1000 g/ha) | Pre-emergence Test IPOHE, percentage damage caused to the plant (five-point scale) ([8]; 250 g/Ha (*)) | Pre-emergence Test IPOHE, percentage damage caused to the plant (five-point scale) ([8]; 1000 g/ha) | Pre-emergence Test ECHCG, percentage damage caused to the plant (five-point scale) ([9]; 250 g/Ha (*)) | Pre-emergence Test ECHCG, percentage damage caused to the plant (five-point scale) ([9]; 1000 g/ha) | Post-emergence Test SETFA, percentage damage caused to the plant (five-point scale) (Setaria faberi (SETFA)) | Pre-emergence Test AMAPA, percentage damage caused to the plant (five-point scale) ([10]; 250 g/Ha (*)) | Pre-emergence Test AMAPA, percentage damage caused to the plant (five-point scale) ([10]; 1000 g/ha) | other results
1 | CCn1c(Cn2ccc(-c3cccs3)n2)cc(=O)c(C(=O)O)c1-c1ccc(Cl)c(Cl)c1 [Compound 194, 2-(3,4-dichlorophenyl)-1-ethyl-4-oxo-6-[[3-(2-thienyl)pyrazol-1-yl]methyl]pyridine-3-carboxylic acid] | 0 | 1 (1=0-20%) | 2 (2=21-40%) | 1 (1=0-20%) | 2 (2=21-40%) | 1 (1=0-20%) | 1 (1=0-20%) | 0 | 2 (2=21-40%) | 0 | 1 (1=0-20%) | 0 | 0 | 1 (1=0-20%) | 2 (2=21-40%) | 1 (1=0-20%) | 2 (2=21-40%) | 3 (3=41-60%) | 0 | 0 | –
2 | CCn1c(Cn2ccc(-c3cnccn3)n2)cc(=O)c(C(=O)O)c1-c1ccc(Cl)c(Cl)c1 [Compound 203, 2-(3,4-dichlorophenyl)-1-ethyl-4-oxo-6-[(3-pyrazin-2-ylpyrazol-1-yl)methyl]pyridine-3-carboxylic acid] | – | 1 (1=0-20%) | 1 (1=0-20%) | 2 (2=21-40%) | 1 (1=0-20%) | 1 (1=0-20%) | 1 (1=0-20%) | 1 (1=0-20%) | 0 | 1 (1=0-20%) | 0 | – | 1 (1=0-20%) | – | 0 | – | 2 (2=21-40%) | 1 (1=0-20%) | – | 1 (1=0-20%) | –
3 | CCOc1ccn(Cc2cc(=O)c(C(=O)O)c(-c3ccc(Cl)c(Cl)c3)n2CC)n1 [Compound 164, 2-(3,4-dichlorophenyl)-6-[(3-ethoxypyrazol-1-yl)methyl]-1-ethyl-4-oxo-pyridine-3-carboxylic acid] | 1 (1=0-20%) | 0 | – | – | – | – | – | – | – | – | – | 1 (1=0-20%) | 1 (1=0-20%) | 4 (4=61-80%) | 4 (4=61-80%) | 4 (4=61-80%) | 5 (5=81-100%) | – | 0 | 1 (1=0-20%) | percentage damage caused to the plant, ECHCG (five-point scale) ([2]; 250 g/Ha): 4 (4=61-80%); percentage damage caused to the plant, IPOHE (five-point scale) ([3]; 250 g/Ha): 3 (3=41-60%); percentage damage caused to the plant, IPOHE (five-point scale) ([3]; 1000 g/ha): 4 (4=61-80%); percentage damage caused to the plant, ZEAMX (five-point scale) (Zea mays (ZEAMX) [4]; 250 g/Ha): 4 (4=61-80%); percentage damage caused to the plant, ZEAMX (five-point scale) (Zea mays (ZEAMX) [4]; 1000 g/ha): 4 (4=61-80%); percentage damage caused to the plant, AMARE (five-point scale) ([5]; 250 g/Ha): 1 (1=0-20%); percentage damage caused to the plant, AMARE (five-point scale) ([5]; 1000 g/ha): 3 (3=41-60%); percentage damage caused to the plant, AMAPA (five-point scale) ([6]; 250 g/Ha): 1 (1=0-20%); percentage damage caused to the plant, AMAPA (five-point scale) ([6]; 1000 g/ha): 3 (3=41-60%); percentage damage caused to the plant, SETFA (five-point scale) (Setaria faberi (SETFA)): 5 (5=81-100%)
